Counter-ions that a name gives are not always drawn. Like-named read-outs stand apart in the source and are kept apart here.
Tested on: amyloid β production in transfected H4 (human neuroglioma) cells stably expressing APP constructs
Assay: In vitro cell-based assay of inhibitors of amyloid β production (ELISA)
Settings: amyloid β in medium by ELISA
Summary of the method: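 Sandwich ELISA read-out: Aβ in conditioned medium captured via C-terminal epitope mAb, detected with N-terminus-specific rabbit polyclonal, quantified from a standard curve. Compounds 10-100 μM, ~16 h exposure. Active = ≥50% inhibition vs control without significant cytotoxicity; dose-response follows.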

[1] = transfected H4 cells stably expressing APP, approximately 16 hours incubation, Table B, read-out: ACTIVITY (IC50, inhibition of amyloid β production)
[2] = transfected H4 cells stably expressing APP constructs, approximately 16 hours incubation, read-out: ACTIVITY (IC50, inhibition of amyloid β production)
[3] = transfected H4 cells stably expressing APP, approximately 16 hours incubation, read-out: ACTIVITY (IC50, inhibition of amyloid β production)
[4] = Homo sapiens, 16 h, transfected H4 cells stably expressing APP, approximately 16 hours incubation, read-out: ACTIVITY (IC50, inhibition of amyloid β production)
[5] = transfected H4 cells stably expressing APP, approx. 16 h incubation, read-out: ACTIVITY (IC50, inhibition of amyloid β production)
[6] = Homo sapiens, 16 h, transfected H4 cells expressing APP, approximately 16 hours incubation, read-out: ACTIVITY (IC50, inhibition of amyloid β production)

COC(=O)C(N)CS(=O)(=O)Cc1cc(F)ccc1[C@@H](C)N(c1cc(F)ccc1F)S(=O)(=O)c1ccc(Cl)cc1 (stereo partly drawn) [Example 470, Methyl 2-amino-3-{[2-(1R)-1-{[(4-chlorophenyl)sulfonyl]-2,5-difluoroanilino}ethyl)-5-fluorobenzyl]sulfonyl}propanoate Hydrochloride]
IC50 [1]: 50 to 100 nM

C[C@H](CCCS(C)(=O)=O)N(c1cc(Cl)ccc1CO)S(=O)(=O)c1ccc(S(C)(=O)=O)cc1 [Example 1230]
IC50 [2]: 25 to 50 nM

4-chloro-N-(5-chloro-2-fluorophenyl)-N-[3-[2-[4-chloro-N-(5-chloro-2-fluorophenyl)-N-[(3-amino)-1(R)-methylpropyl]benzenesulfonamide]-3,4-dioxo-1-cyclobutenyl)amine-1(R)- [Example 1130]
IC50 [2]: 50 to 100 nM

CC[S+]([O-])CCC[C@@H](C)N(c1cc(Cl)ccc1F)S(=O)(=O)c1ccc(Cl)cc1 (stereo partly drawn) [Example 1160, 4-chloro-N-(5-chloro-2-fluorophenyl)-N-[1(R)-methyl-(4-ethylsulfinyl)butyl]benzenesulfonamide]
IC50 [2]: ≤ 25 nM

O=S(=O)(c1ccc(Cl)cc1)N(Cc1ccccc1OCCCN1CCC1)c1ccccc1 [Example 292, N-{2-[3-(1-azetidinyl)propoxy]benzyl}-4-chloro-N-phenylbenzenesulfonamide Hydrochloride]
IC50 [1]: 25 to 50 nM

S-methyl 2-[2-(1-{[(4-chlorophenyl)sulfonyl]-2,5-difluoroanilino}ethyl)phenoxy]ethyl(methyl)thiocarbamate [Example 983]
IC50 [3]: > 500 nM

N-{3-[2-(1-{[(4-chlorophenyl)sulfonyl]-2,5-difluoroanilino}ethyl)phenoxy]propyl}-3,5-difluorobenzamide [Example 815]
IC50 [3]: 100 to 500 nM

C[C@H](c1ccccc1CN1CCCCC1)N(c1cc(F)ccc1F)S(=O)(=O)c1ccc(Cl)cc1 [Example 939, 4-chloro-N-(2,5-difluorophenyl)-N-{(1R)-1-[2-(1-piperidinylmethyl)phenyl]ethyl}benzenesulfonamide hydrochloride]
IC50 [3]: > 500 nM

O=S(=O)(c1ccc(Cl)cc1)N(Cc1ccccc1OCCCN1CCCCC1)C1CCOCC1 [Example 986, 4-chloro-N-{2-[3-(1-piperidinyl)propoxy]benzyl}-N-tetrahydro-2H-pyran-4-ylbenzenesulfonamide hydrochloride]
IC50 [4]: > 500 nM

2,4,6-trichloro-N-{3-[2-(1-{[(4-chlorophenyl)sulfonyl]-2,5-difluoroanilino}ethyl)phenoxy]propyl}-N-methylbenzamide [Example 713]
IC50 [5]: 100 to 500 nM

CC(C)C[S+]([O-])CCC[C@@H](C)N(c1cc(Cl)ccc1Cl)S(=O)(=O)c1ccc(Cl)cc1 (stereo partly shown) [Example 1182]
IC50 [2]: ≤ 25 nM

C[C@H](COC(=O)N(C)CCO)N(c1cc(Cl)ccc1Cl)S(=O)(=O)c1ccc(Cl)cc1 [Example 1249, 4-Chloro-N-(2,5-dichlorophenyl)-N-[2-[[N′-[2-(hydroxyethyl)-N′-methylamino]carbonyl]oxy]-(R)-1-methylethyl]benzenesulfonamide]
IC50 [2]: ≤ 25 nM

2-[2-((1R)-1-{[(4-chlorophenyl)sulfonyl]-2,5-difluoroanilino}ethyl)phenyl]ethyl sec-butylcarbamate [Example 650]
IC50 [5]: 100 to 500 nM

CC(C)S(=O)(=O)CCC[C@@H](C)N(c1cc(Cl)ccc1Cl)S(=O)(=O)c1ccc(Cl)cc1 [Example 1161]
IC50 [2]: ≤ 25 nM

2-((1R)-1-{[(4-chlorophenyl)sulfonyl]-2,5-difluoroanilino}ethyl)-5-fluorobenzyl 2-(1-pyrrolidinyl)ethylcarbamate [Example 914]
IC50 [3]: > 500 nM

O=C(OC[C@H](c1ccccc1)N(c1cc(F)ccc1F)S(=O)(=O)c1ccc(Cl)cc1)c1ccncc1 [Example 904, (2S)-2-{[(4-chlorophenyl)sulfonyl]-2,5-difluoroanilino}-2-henylethyl isonicotinate]
IC50 [3]: > 500 nM

(R)-4-Chloro-N-(2,5-difluorophenyl)-N-[1-[4-fluoro-2-[1-(2-methyl-4-thiomorpholinyl)butanoyl]phenyl]ethyl]benzenesulfonamide [Example 1276]
IC50 [2]: ≤ 25 nM

(2E)-3-[2-({[(4-chlorophenyl)sulfonyl]anilino}methyl)phenyl]-N-methoxy-N-methyl-2-propenamide [Example 1034]
IC50 [3]: > 500 nM

O=S(=O)(CCCOc1ccccc1CN(c1cc(F)ccc1F)S(=O)(=O)c1ccc(Cl)cc1)c1ccccc1 [Example 818, 4-chloro-N-(2,5-difluorophenyl)-N-{2-[3-(phenylsulfonyl)propoxy]benzyl}benzenesulfonamide]
IC50 [4]: 100 to 500 nM

CCSCCCc1cc(F)ccc1[C@@H](C)N(c1cc(F)ccc1F)S(=O)(=O)c1ccc(SCC)cc1 [Example 936, N-(2,5-difluorophenyl)-4-(ethylsulfanyl)-N-((1R)-1-{2-[3-(ethylsulfanyl)propyl]-4-fluorophenyl}ethyl)benzenesulfonamide]
IC50 [4]: > 500 nM

N-{4-[2-(1-{[(4-chlorophenyl)sulfonyl]-2,5-difluoroanilino}ethyl)phenoxy]butyl}-N-methylacrylamide [Example 843]
IC50 [3]: 100 to 500 nM

CC(c1ccccc1OCCCn1ccnc1)N(c1cc(F)ccc1F)S(=O)(=O)c1ccc(Cl)cc1 (stereo not shown) [Example 1047, 4-chloro-N-(2,5-difluorophenyl)-N-(1-{2-[3-(1H-imidazol-1-yl)propoxy]phenyl}ethyl)benzenesulfonamide]
IC50 [3]: > 500 nM

(E)-N-(2,5-dichlorophenyl)-2-phenyl-N-{2-[3-(1-piperidinyl)propoxy]benzyl}ethanesulfonamide hydrochloride [Example 994]
IC50 [3]: > 500 nM

4-chloro-N-{3-[2-(1-{[(4-chlorophenyl)sulfonyl]-2,5-difluoroanilino}ethyl)phenoxy]propyl}-2-nitrobenzamide [Example 947]
IC50 [3]: > 500 nM

C[C@H](COC(=O)N1CCCC1)N(c1cc(Cl)ccc1CO)S(=O)(=O)c1ccc(Cl)cc1 [Example 1287]
IC50 [6]: ≤ 25 nM

COC(=O)CS(=O)(=O)CC[C@@H](C)N(c1cc(Cl)ccc1Cl)S(=O)(=O)c1ccc(Cl)cc1 [Example 1191, methyl(6R)-6-[(2,5-dichlorophenyl)-[(4-chlorophenyl)sulfonyl]-amino]-3-thioheptanoic acid, 3,3-dioxide]
IC50 [2]: 100 to 500 nM

Nc1cc(Cl)ccc1COC1CCCCO1 (stereo not shown) [Example 3, 5-Chloro-2-[[(tetrahydro-2H-pyran-2-yl)oxy]methyl]benzenamine]
IC50 (Table B, transfected H4 cells stably expressing APP, approximately 16 hours incubation, read-out: ACTIVITY (inhibitory concentration IC50, inhibition of amyloid β production)): ≤ 25 nM

N-{3-[2-(1-{[(4-chlorophenyl)sulfonyl]-2,5-difluoroanilino}ethyl)phenoxy]propyl}-4-methylbenzamide [Example 707]
IC50 [5]: 100 to 500 nM

CSC1CCN(CCC[C@@H](C)N(c2cc(Cl)ccc2Cl)S(=O)(=O)c2ccc(Cl)cc2)C1 (stereo partly drawn) [Example 1144, 4-chloro-N-(2,5-dichlorophenyl)-N-[4-[(4-methylthio)-1-pyrrolidinyl]-1(R)-methylbutyl]benzenesulfonamide]
IC50 [2]: 100 to 500 nM

O=S(=O)(c1ccc(Cl)cc1)N(Cc1c(OCCCN2CCCCC2)ccc2ccccc12)c1cc(F)ccc1F [Example 1025, 4-chloro-N-(2,5-difluorophenyl)-N-(2-{2-[3-(1-piperidinyl)propoxy]-1-naphthyl}methyl)benzenesulfonamide hydrochloride]
IC50 [3]: > 500 nM

N-{3-[2-(1-{[(4-chlorophenyl)sulfonyl]-2,5-difluoroanilino}methyl)phenoxy]propyl}-2-fluoro-N-methylbenzamide [Example 733]
IC50 [5]: 100 to 500 nM

COC(=O)CCS(=O)(=O)CCc1cc(F)ccc1[C@@H](C)N(c1cc(F)ccc1F)S(=O)(=O)c1ccc(Cl)cc1 [Example 474, Methyl 3-({2-[2-((1R)-1-{[(4-chlorophenyl)sulfonyl]-2,5-difluoroanilino}ethyl)-5-fluorophenyl]ethyl}sulfonyl)propanoate]
IC50 [1]: 100 to 500 nM

2-({[(4-chlorophenyl)sulfonyl]anilino}methyl)phenyl trifluoromethanesulfonate [Example 1004]
IC50 [3]: > 500 nM

Cc1ccccc1N(Cc1ccccc1OCCCN1CCCCC1)S(=O)(=O)c1ccc(Cl)cc1 [Example 875, 4-chloro-N-(2-methylphenyl)-N-{2-[3-(1-piperidinyl)propoxy]benzyl}benzenesulfonamide hydrochloride]
IC50 [4]: 100 to 500 nM

C[C@H](CCCOC(=O)NCCn1ccnc1)N(c1cc(Cl)ccc1CO)S(=O)(=O)c1ccc(Cl)cc1 [Example 1292]
IC50 [6]: > 10000 nM

CC1CCCCN1CCCNC(=O)[C@@H](C)N(c1cc(Cl)ccc1F)S(=O)(=O)c1ccc(Cl)cc1 (stereo partly shown) [Example 1340]
IC50 [6]: > 500 nM

C[C@H](CCCS(=O)(=O)NC1CCS(=O)(=O)C1)N(c1cc(Cl)ccc1Cl)S(=O)(=O)c1ccc(Cl)cc1 (stereo partly drawn) [Example 1214, 4-chloro-N-[2,5-dichlorophenyl]-N-[4-[[(tetrahydro-1,1-dioxido-3-thienyl)amino]sulfonyl]-1(R)-methylbutyl]benzenesulfonamide]
IC50 (Homo sapiens, 16 h, transfected H4 cells stably expressing APP constructs, approximately 16 hours incubation, read-out: ACTIVITY (IC50, inhibition of amyloid β production)): ≤ 25 nM
